# What was measured:
# [1] = target: Histone-lysine N-methyltransferase 2A/WDR5 (Homo sapiens, UniProt P61964); test: Inhibition of MLL1/WDR5 (unknown origin) protein-protein interaction incubated for 2 hrs by FP analysis; assay type: protein assay
# Histone deacetylase 3 = Histone deacetylase 3 (Homo sapiens, UniProt O15379); test: Inhibition of HDAC3 (unknown origin) by fluorescence based assay
# Histone deacetylase 4 = Histone deacetylase 4 (Homo sapiens, UniProt P56524); test: Inhibition of HDAC4 (unknown origin) by fluorescence based assay
# [2] = target: Histone-lysine N-methyltransferase 2A (Homo sapiens, UniProt Q03164); test: Inhibition of MLL1 (unknown origin) by fluorescence based assay
# MV4-11 [3] = test: Induction of apoptosis in human MV4-11 cells assessed as viable cells at 50 nmol/L incubated for 72 hrs by Annexin V/PI staining based flow cytometry analysis (reference value: 90.23%); assay type: functional; conditions: read-out: Activity
# MV4-11 [4] = test: Induction of apoptosis in human MV4-11 cells assessed as necrotic cells at 50 nmol/L incubated for 72 hrs by Annexin V/PI staining based flow cytometry analysis (reference value: 0.46%); assay type: functional
# MV4-11 [5] = test: Induction of apoptosis in human MV4-11 cells assessed as viable cells at 100 nmol/L incubated for 72 hrs by Annexin V/PI staining based flow cytometry analysis (reference value: 90.23%); assay type: functional; conditions: read-out: Activity
# MV4-11 [6] = test: Induction of apoptosis in human MV4-11 cells assessed as late apoptotic cells at 100 nmol/L incubated for 72 hrs by Annexin V/PI staining based flow cytometry analysis (reference value: 5.14%); assay type: functional
# MV4-11 [7] = test: Antitumor activity against human MV4-11 cells xenografted in mouse assessed as tumor growth inhibition at 30 mg/kg, ip administered daily for 17 days; assay type: functional; conditions: MV4-11, 408 h, time 17 day, read-out: TGI
# [8] = Toxicity in mouse implanted in human MV4-11 cells assessed as kidney damage at 10 to 30 mg/kg, ip administered daily for 17 days by H and E staining based analysis; assay type: organism-based; conditions: in vivo, 408 h, dose 10-30 mg/kg, time 17 day
# MV4-11 [9] = test: Antiproliferative activity against human MV4-11 cells assessed as growth inhibition at 0.5 uM measured after 72 hrs by CellTiterGlo assay; assay type: functional; conditions: read-out: GI
# MV4-11 [10] = test: Antiproliferative activity against human MV4-11 cells assessed as growth inhibition at 1 uM measured after 72 hrs by CellTiterGlo assay; assay type: functional; conditions: read-out: GI
# MV4-11 [11] = test: Antiproliferative activity against human MV4-11 cells assessed as growth inhibition at 0.05 uM measured after 72 hrs in presence of 0.2 uM of vorinostat by CellTiterGlo assay; assay type: functional; conditions: read-out: GI
# MV4-11 [12] = test: Antiproliferative activity against human MV4-11 cells assessed as growth inhibition at 0.1 uM measured after 72 hrs in presence of 0.05 uM of vorinostat by CellTiterGlo assay; assay type: functional; conditions: read-out: GI
# MV4-11 [13] = test: Antiproliferative activity against human MV4-11 cells assessed as growth inhibition at 0.1 uM measured after 72 hrs in presence of 0.1 uM of vorinostat by CellTiterGlo assay; assay type: functional; conditions: read-out: GI
# MV4-11 [14] = test: Antiproliferative activity against human MV4-11 cells assessed as growth inhibition at 0.1 uM measured after 72 hrs in presence of 0.4 uM of vorinostat by CellTiterGlo assay; assay type: functional; conditions: read-out: GI
# MV4-11 [15] = test: Antiproliferative activity against human MV4-11 cells assessed as growth inhibition at 0.4 uM measured after 72 hrs in presence of 0.05 uM of vorinostat by CellTiterGlo assay; assay type: functional; conditions: read-out: GI
# MV4-11 [16] = test: Antiproliferative activity against human MV4-11 cells assessed as growth inhibition at 0.5 uM measured after 72 hrs in presence of 0.1 uM of vorinostat by CellTiterGlo assay; assay type: functional; conditions: read-out: GI
# MV4-11 [17] = test: Antiproliferative activity against human MV4-11 cells assessed as growth inhibition at 0.5 uM measured after 72 hrs in presence of 0.5 uM of vorinostat by CellTiterGlo assay; assay type: functional; conditions: read-out: GI
# MV4-11 [18] = test: Antiproliferative activity against human MV4-11 cells assessed as growth inhibition at 1 uM measured after 72 hrs in presence of 0.2 uM of vorinostat by CellTiterGlo assay; assay type: functional; conditions: read-out: GI
# MV4-11 [19] = test: Antiproliferative activity against human MV4-11 cells assessed as growth inhibition at 1 uM measured after 72 hrs in presence of 0.5 uM of vorinostat by CellTiterGlo assay; assay type: functional; conditions: read-out: GI
# MV4-11 [20] = test: Induction of apoptosis in human MV4-11 cells assessed as early apoptotic cells at 400 nM incubated for 72 hrs in presence of vorinostat by Annexin V/PI staining based flow cytometry analysis (reference value: 0.76 %); assay type: functional
# MV4-11 [21] = test: Induction of apoptosis in human MV4-11 cells assessed as viable cells at 600 nM incubated for 72 hrs in presence of vorinostat by Annexin V/PI staining based flow cytometry analysis (reference value: 96.68%); assay type: functional; conditions: read-out: Activity
# Sequence of Histone-lysine N-methyltransferase 2A (Q03164 1-2718 limits assumed): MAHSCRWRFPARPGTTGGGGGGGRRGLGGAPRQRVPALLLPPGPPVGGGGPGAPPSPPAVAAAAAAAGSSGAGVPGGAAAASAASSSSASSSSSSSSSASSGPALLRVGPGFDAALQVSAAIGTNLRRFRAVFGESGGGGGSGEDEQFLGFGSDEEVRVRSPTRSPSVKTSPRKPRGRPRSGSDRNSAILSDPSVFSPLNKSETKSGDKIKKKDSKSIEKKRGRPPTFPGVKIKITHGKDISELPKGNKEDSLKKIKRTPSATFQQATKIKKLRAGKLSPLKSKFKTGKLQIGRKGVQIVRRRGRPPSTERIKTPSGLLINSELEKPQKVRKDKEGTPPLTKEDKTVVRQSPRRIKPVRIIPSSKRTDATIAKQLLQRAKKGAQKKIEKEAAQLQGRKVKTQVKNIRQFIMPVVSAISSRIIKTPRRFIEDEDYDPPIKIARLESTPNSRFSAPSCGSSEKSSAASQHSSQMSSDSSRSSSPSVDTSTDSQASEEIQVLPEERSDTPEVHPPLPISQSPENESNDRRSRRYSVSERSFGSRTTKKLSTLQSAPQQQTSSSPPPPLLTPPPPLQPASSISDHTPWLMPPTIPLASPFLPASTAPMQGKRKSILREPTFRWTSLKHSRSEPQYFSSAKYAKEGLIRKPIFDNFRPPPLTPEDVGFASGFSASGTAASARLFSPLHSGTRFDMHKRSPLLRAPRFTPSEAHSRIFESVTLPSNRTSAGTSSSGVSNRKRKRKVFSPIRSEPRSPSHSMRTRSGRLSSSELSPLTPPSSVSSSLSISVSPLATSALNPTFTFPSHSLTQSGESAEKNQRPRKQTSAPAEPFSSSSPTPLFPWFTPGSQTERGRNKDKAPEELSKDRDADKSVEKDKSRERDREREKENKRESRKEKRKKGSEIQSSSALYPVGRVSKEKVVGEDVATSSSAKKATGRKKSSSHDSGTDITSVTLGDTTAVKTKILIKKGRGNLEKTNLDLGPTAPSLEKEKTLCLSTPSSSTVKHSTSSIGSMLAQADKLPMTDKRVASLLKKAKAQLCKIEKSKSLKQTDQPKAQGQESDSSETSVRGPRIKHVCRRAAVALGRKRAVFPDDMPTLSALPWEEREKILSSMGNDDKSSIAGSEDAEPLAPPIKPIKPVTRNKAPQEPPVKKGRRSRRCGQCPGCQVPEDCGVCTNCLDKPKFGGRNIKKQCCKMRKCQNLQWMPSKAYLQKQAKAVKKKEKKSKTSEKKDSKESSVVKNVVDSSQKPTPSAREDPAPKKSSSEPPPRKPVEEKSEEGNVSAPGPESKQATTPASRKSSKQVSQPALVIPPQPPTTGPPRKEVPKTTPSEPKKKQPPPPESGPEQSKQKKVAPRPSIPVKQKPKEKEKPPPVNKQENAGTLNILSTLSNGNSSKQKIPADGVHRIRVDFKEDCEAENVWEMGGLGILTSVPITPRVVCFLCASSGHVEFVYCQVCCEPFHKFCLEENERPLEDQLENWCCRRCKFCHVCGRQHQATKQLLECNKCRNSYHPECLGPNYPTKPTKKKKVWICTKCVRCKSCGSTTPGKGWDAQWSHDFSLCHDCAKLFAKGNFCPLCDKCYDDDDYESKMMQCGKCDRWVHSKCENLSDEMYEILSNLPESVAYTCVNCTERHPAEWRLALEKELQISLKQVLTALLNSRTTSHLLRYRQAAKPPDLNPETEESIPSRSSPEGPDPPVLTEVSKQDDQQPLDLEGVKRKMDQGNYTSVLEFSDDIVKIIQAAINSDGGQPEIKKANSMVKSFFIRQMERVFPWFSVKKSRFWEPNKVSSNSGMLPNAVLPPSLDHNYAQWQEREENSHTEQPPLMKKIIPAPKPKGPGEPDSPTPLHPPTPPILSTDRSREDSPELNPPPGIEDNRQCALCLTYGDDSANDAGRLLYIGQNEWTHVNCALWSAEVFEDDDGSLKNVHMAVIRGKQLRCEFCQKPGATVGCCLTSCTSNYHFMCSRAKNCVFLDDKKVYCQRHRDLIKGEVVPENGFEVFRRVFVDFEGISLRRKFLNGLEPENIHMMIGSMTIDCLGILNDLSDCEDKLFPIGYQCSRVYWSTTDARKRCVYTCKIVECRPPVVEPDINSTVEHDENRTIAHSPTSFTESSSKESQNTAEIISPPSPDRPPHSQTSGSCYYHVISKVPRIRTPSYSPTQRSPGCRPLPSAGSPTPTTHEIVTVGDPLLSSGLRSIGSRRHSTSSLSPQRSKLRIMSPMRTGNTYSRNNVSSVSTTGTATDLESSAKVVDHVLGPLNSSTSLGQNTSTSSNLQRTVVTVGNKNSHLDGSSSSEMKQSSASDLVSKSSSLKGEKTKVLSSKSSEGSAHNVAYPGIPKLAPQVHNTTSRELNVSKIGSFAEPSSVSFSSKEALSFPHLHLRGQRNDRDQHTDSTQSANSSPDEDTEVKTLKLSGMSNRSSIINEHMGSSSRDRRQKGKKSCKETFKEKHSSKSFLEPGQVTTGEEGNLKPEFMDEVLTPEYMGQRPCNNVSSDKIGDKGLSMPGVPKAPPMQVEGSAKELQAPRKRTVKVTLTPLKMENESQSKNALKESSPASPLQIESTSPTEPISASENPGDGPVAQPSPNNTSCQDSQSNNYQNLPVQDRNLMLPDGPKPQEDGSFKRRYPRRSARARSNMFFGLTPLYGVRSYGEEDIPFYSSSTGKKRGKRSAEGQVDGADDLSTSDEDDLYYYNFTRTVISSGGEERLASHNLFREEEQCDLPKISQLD
# Sequence of Histone-lysine N-methyltransferase 2A (Q03164 2719-3969 limits assumed): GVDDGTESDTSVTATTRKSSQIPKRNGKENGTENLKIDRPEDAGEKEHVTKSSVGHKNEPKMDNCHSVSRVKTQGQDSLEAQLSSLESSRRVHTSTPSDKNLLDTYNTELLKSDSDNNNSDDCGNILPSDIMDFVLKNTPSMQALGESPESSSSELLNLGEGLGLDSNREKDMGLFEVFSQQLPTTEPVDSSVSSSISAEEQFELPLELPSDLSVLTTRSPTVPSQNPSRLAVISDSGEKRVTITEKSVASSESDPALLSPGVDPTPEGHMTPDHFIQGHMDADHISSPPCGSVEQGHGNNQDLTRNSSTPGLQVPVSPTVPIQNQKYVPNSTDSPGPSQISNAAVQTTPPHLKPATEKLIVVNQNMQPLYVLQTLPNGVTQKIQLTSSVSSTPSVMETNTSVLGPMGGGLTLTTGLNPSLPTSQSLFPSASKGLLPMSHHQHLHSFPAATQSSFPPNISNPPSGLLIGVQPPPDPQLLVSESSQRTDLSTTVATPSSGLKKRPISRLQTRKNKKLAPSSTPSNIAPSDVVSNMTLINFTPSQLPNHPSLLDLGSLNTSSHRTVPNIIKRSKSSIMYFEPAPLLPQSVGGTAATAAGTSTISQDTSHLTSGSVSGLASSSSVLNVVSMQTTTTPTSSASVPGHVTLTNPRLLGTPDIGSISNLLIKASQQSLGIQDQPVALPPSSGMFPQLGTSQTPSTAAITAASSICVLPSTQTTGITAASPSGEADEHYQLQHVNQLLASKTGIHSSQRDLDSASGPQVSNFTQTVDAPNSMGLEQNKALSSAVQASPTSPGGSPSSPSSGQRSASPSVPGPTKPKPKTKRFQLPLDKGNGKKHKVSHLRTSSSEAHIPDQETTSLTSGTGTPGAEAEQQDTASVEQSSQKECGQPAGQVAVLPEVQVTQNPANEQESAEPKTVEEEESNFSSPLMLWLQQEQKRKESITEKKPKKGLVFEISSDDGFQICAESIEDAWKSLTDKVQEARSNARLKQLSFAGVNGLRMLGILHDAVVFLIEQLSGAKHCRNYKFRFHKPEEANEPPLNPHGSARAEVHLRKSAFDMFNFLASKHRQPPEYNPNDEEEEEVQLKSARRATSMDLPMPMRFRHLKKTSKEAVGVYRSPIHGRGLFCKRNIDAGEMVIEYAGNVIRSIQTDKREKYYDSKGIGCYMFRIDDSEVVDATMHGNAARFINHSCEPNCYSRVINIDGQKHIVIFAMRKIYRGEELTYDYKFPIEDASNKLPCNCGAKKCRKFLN
# Sequence of Histone deacetylase 3 (O15379 whole entry): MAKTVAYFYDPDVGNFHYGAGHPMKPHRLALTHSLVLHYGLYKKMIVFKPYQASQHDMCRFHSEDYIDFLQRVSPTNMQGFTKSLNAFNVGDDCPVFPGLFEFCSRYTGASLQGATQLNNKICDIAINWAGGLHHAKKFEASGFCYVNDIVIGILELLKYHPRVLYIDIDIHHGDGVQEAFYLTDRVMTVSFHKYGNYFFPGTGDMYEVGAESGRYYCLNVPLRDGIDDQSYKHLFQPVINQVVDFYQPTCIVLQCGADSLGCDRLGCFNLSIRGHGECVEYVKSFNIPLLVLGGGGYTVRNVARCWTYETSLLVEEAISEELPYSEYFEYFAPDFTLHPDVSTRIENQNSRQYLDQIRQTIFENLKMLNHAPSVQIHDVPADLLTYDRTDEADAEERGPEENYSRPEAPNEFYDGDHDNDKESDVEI
smiles,measurement,setting,value
Cc1c(F)c(N)cc(C(=O)Nc2cc(-c3ccc(C(=O)NCc4ccc(/C=C/C(=O)NO)cc4)cc3)ccc2N2CCN(C)CC2)c1Cl,IC50,[1],42 nM
same,IC50,Histone deacetylase 3,296 nM
same,IC50,Histone deacetylase 4,4690 nM
same,IC50,[2],131 nM
same,viability at 0.05 µM,MV4-11 [3],75.7%
same,Activity,MV4-11 [4],2.44%
same,viability at 0.1 µM,MV4-11 [5],71.5%
same,Activity,MV4-11 [6],7.14%
same,inhibition in vivo at 30 mg/kg,MV4-11 [7],87.1%
same,Activity,[8],Non-toxic
Cc1c(F)c(N)cc(C(=O)Nc2cc(-c3ccc(C(=O)N4CCOCC4)cc3)ccc2N2CCN(C)CC2)c1Cl,inhibition of growth at 0.5 µM,MV4-11 [9],27.5%
same,inhibition of growth at 1 µM,MV4-11 [10],40.7%
same,inhibition of growth at 0.05 µM,MV4-11 [11],46.6%
same,inhibition of growth at 0.1 µM,MV4-11 [12],34.4%
same,inhibition of growth at 0.1 µM,MV4-11 [13],42.8%
same,inhibition of growth at 0.1 µM,MV4-11 [14],59%
same,inhibition of growth at 0.4 µM,MV4-11 [15],40%
same,inhibition of growth at 0.5 µM,MV4-11 [16],51.7%
same,inhibition of growth at 0.5 µM,MV4-11 [17],73.2%
same,inhibition of growth at 1 µM,MV4-11 [18],61.6%
same,inhibition of growth at 1 µM,MV4-11 [19],77.1%
same,Activity,MV4-11 [20],54.05%
same,viability at 0.6 µM,MV4-11 [21],9.67%

# — ChEMBL document CHEMBL6096706, “Discovery of WDR5-MLL1 and HDAC Dual-Target Inhibitors for the Treatment of Acute Myeloid Leukemia” (J Med Chem, 2025)
